From patent publication US10765643B2, “Use of cannabidiol in the treatment of epilepsy” (GW Pharma Limited, priority 2014, dated 2020)

Assays:
seizures [1] = conditions: Consroe et al., 1977; cited from earlier work
[2] = system: seizures associated with Aicardi Syndrome; assay: Expanded access compassionate use program: CBD added to baseline AED regimen, seizure frequency from seizure diaries; format: in vivo, human
Method: Of 137 children and young adults with severe, childhood onset treatment-resistant epilepsy (TRE), 14 suffered from Aicardi syndrome. These subjects were tested with a highly purified extract of cannabidiol (CBD) obtained from a cannabis plant. The participants in the study were part of an expanded access compassionate use program for CBD.
All of these patients diagnosed with Aicardi Syndrome presented with multiple seizure types which included
focal seizures with impairment; infantile spasm; clonic seizures; tonic seizures; tonic-clonic seizures; atonic seizures; myoclonic seizures; absence seizures; and focal seizures evolving to secondary generalised seizures.
All patients entered a baseline period of 4 weeks when parents/caregivers kept prospective seizure diaries, noting all countable motor seizure types.
The patients then received a highly purified CBD extract (greater than 98% CBD w/w) in sesame oil, of known and constant composition, at a dose of 5 mg/kg/day in addition to their baseline anti-epileptic drug (AED) regimen.
Laboratory testing for hematologic, liver, kidney function, and concomitant AED levels was performed at baseline, and after CBD therapy.
All patients were taking at least two concomitant anti-epileptic drugs. These included clobazam; levetiracetam; topiramate; stiripentol; phenobarbital; lacsamide; valproic acid; zonisamide. The average number of concomitant antiepileptic drugs being taken was 2.7.
There were 14 children and young adult patients who received at least 3 months of treatment all of whom suffered from treatment-resistant epilepsy which is characterised by Aicardi Syndrome.
The change from baseline in the number of different seizures and total number of seizures after 12 weeks treatment are summarized in Table 7 below.

[3] = Solubility of drug substance in water; format: physicochemical
Description: The drug substance, CBD is insoluble in water. Sesame oil was selected as an excipient to solubilize the drug substance.

seizures [4] = conditions: 200 mg/day pure CBD, four adult patients; seizure frequency unchanged in the remainder; cited from earlier work
generalized epilepsy = conditions: eight adult patients with generalized epilepsy; cited from earlier work
[5] = system: seizures after pro-convulsant drugs or an electric current; conditions: mice; cited from earlier work
seizures [6] = conditions: 200 mg/day pure CBD, twelve institutionalized adult patients, open label; cited from earlier work
Lennox-Gastaut syndrome = conditions: one child with Lennox-Gastaut syndrome, CBD in an oily solution; cited from earlier work
[7] = 14 Aicardi Syndrome patients, after 12 weeks treatment, CBD 5 up to 25 mg/kg/day plus concomitant AED
[8] = Aicardi Syndrome patients, after 3 months of therapy

Structure (SMILES) | pro-convulsant effect (seizures [1]) | Average change in baseline (%) Convulsive seizures [2, 7] [%] | Average change in baseline (%) Focal seizures with impairment [2, 7] [%] | Average change in baseline (%) Infantile spasm [2, 7] [%] | Average change in baseline (%) Total seizures [2, 7] [%] | reduction in convulsive seizures [2, 8] [%] | reduction in focal seizures with impairment [2, 8] [%] | reduction of infantile spasms [2, 8] [%] | reduction in total seizures ([2]; Aicardi Syndrome patients, after 3 months of therapy, average decrease) [%] | focal onset seizures evolving to secondary generalisation ([2]; one patient, week 12, 47 seizures at baseline, earlier stage of program) [per month] | tonic-clonic seizures ([2]; other patient, week 12, 7 seizures at baseline, earlier stage of program) [per month] | tonic seizures ([2]; other patient, week 12, 67 seizures at baseline, earlier stage of program) [per month] | solubility in water [3] | patients who became seizure free (seizures [4]) | patients with marked reduction of seizures (generalized epilepsy) | prevention of seizures [5] | controlling seizures (seizures [6]) | seizure frequency (Lennox-Gastaut syndrome)
CCCCCc1cc(O)c2c(c1)OC(C)(C)[C@@H]1CCC(C)=C[C@@H]21 [THC, Tetrahydro- cannabinol] | pro-convulsant |  |  |  |  |  |  |  |  |  |  |  |  |  |  |  |  | 
C=C(C)[C@@H]1CCC(C)=C[C@H]1c1c(O)cc(CCCCC)cc1O [CBD, Cannabidiol] |  | −77 | −62 | −55.5 | −69 | 77 | 62 | 55.5 | 69 | 17 | 5 | 6 | insoluble | two of the four | 4 | able to prevent seizures | ineffective | improvement
